Converted amounts (≈) assume the structure as drawn. The source made the active and inactive calls. The calls are words filed in the database; no cut-off is given here.
What was measured:
[1] = system: Staphylococcus aureus; test: Antibacterial activity against Staphylococcus aureus DSM346 assessed as inhibition of bacterial growth by broth microdilution method; format: functional
[2] = system: L929; test: Cytotoxicity against mouse L929 cells assessed as cell growth inhibition incubated for 5 days by MTT assay; format: functional, cell-based; settings: time 5.0 day
[3] = system: KB 3-1; test: Cytotoxicity against human KB 3-1 cells assessed as cell growth inhibition incubated for 5 days by MTT assay; format: functional, cell-based; settings: time 5.0 day
[4] = system: A-431; test: Cytotoxicity against human A-431 cells assessed as cell growth inhibition incubated for 5 days by MTT assay; format: functional, cell-based; settings: time 5.0 day
[5] = system: A549; test: Cytotoxicity against human A549 cells assessed as cell growth inhibition incubated for 5 days by MTT assay; format: functional, cell-based; settings: time 5.0 day
[6] = system: SK-OV-3; test: Cytotoxicity against human SK-OV-3 cells assessed as cell growth inhibition incubated for 5 days by MTT assay; format: functional, cell-based; settings: time 5.0 day
[7] = system: PC-3; test: Cytotoxicity against human PC-3 cells assessed as cell growth inhibition incubated for 5 days by MTT assay; format: functional, cell-based; settings: time 5.0 day
[8] = system: MCF7; test: Cytotoxicity against human MCF7 cells assessed as cell growth inhibition incubated for 5 days by MTT assay; format: functional, cell-based; settings: time 5.0 day
[9] = system: Bacillus subtilis; test: Antibacterial activity against Bacillus subtilis DSM10 assessed as inhibition of bacterial growth by broth microdilution method; format: functional
[10] = system: Chromobacterium violaceum; test: Antibacterial activity against Chromobacterium violaceum DSM30191 assessed as inhibition of bacterial growth by broth microdilution method; format: functional
[11] = system: Escherichia coli; test: Antibacterial activity against Escherichia coli DSM1116 assessed as inhibition of bacterial growth by broth microdilution method; format: functional
[12] = system: Kocuria rhizophila; test: Antibacterial activity against Kocuria rhizophila DSM1790 assessed as inhibition of bacterial growth by broth microdilution method; format: functional
[13] = system: Candida albicans; test: Antifungal activity against Candida albicans DSM1665 assessed as inhibition of fungal growth by broth microdilution method; format: functional, organism-based
[14] = system: Mucor hiemalis; test: Antifungal activity against Mucor hiemalis DSM2656 assessed as inhibition of fungal growth by broth microdilution method; format: functional, organism-based
[15] = system: Wickerhamomyces anomalus; test: Antifungal activity against Pichia anomala DSM6766 assessed as inhibition of fungal growth by broth microdilution method; format: functional, organism-based
[16] = system: Rhodotorula glutinis; test: Antifungal activity against Rhodotorula glutinis DSM1034 assessed as inhibition of fungal growth by broth microdilution method; format: functional, organism-based
[17] = system: Schizosaccharomyces pombe; test: Antifungal activity against Schizosaccharomyces pombe DSM70572 assessed as inhibition of fungal growth by broth microdilution method; format: functional, organism-based
[18] = system: Mycolicibacterium smegmatis; test: Antimycobacterial activity against Mycobacterium smegmatis ATCC700084 assessed as inhibition of mycobacterial growth by broth microdilution method; format: functional

Compound | MIC [1] | Activity [2] | Activity [3] | Activity [4] | Activity [5] | Activity [6] | Activity [7] | Activity [8] | further results
COC(=O)C[C@H](O)C1(c2cccc(O)c2O)Oc2cccc3cccc(c23)O1 | 66.6 µg/mL (≈ 174 µM) | inactive | inactive | inactive | inactive | inactive | inactive | inactive | –
CN(C)[C@@H]1C(O)=C(C(N)=O)C(=O)[C@@]2(O)C(O)=C3C(=O)c4c(O)cccc4[C@@](C)(O)[C@H]3[C@H](O)[C@@H]12.Cl [OXYTETRACYCLINE HYDROCHLORIDE] | 0.1 µg/mL | – | – | – | – | – | – | – | MIC [9]: 4.2 µg/mL; MIC [10]: 0.4 µg/mL; MIC [11]: 1.7 µg/mL; MIC [12]: 0.4 µg/mL
O=C(O)C[C@H](O)C1(c2cccc(O)c2O)Oc2cccc3cccc(c23)O1 | 66.6 µg/mL (≈ 181 µM) | inactive | inactive | inactive | inactive | inactive | inactive | inactive | –
NYSTATIN | – | – | – | – | – | – | – | – | MIC [13]: 2.1 µg/mL; MIC [14]: 8.3 µg/mL; MIC [15]: 2.1 µg/mL; MIC [16]: 1 µg/mL; MIC [17]: 16.7 µg/mL
NC[C@H]1O[C@H](O[C@H]2[C@H](O)[C@@H](O[C@H]3O[C@H](CO)[C@@H](O)[C@H](N)[C@H]3O)[C@H](N)C[C@@H]2N)[C@H](N)[C@@H](O)[C@@H]1O [BEKANAMYCIN] | – | – | – | – | – | – | – | – | MIC [18]: 2.1 µg/mL (≈ 4.34 µM)

From ChEMBL document CHEMBL4842333, “Catechol-Bearing Polyketide Derivatives from Sparticola junci” (2021)
